PubChem BioAssay (NCI)
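Step 1: Grow cells in 96-well plates. Step 2: Expose to compound for 48 hours at 5 concentrations. Step 3: Interpolate endpoints linearly; if unreached, use highest concentration. TGI: total growth inhibition.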

Tests used:
Assay in all cases: inhibition of tumour cell growth, NCI panel, 48 h
[1] = tested on: 786-0 renal
[2] = tested on: A498 renal
[3] = tested on: A549 NSCLC
[4] = tested on: ACHN renal
[5] = tested on: CAKI-1 renal
[6] = tested on: CCRF-CEM leukemia
[7] = tested on: COLO 205 colon
[8] = tested on: DU-145 prostate
[9] = tested on: EKVX NSCLC
[10] = tested on: HCC-2998 colon
[11] = tested on: HCT-116 colon
[12] = tested on: HCT-15 colon
[13] = tested on: HL-60(TB) leukemia
[14] = tested on: HOP-62 NSCLC
[15] = tested on: HOP-92 NSCLC
[16] = tested on: HS 578T breast
[17] = tested on: HT29 colon
[18] = tested on: IGROV1 ovarian
[19] = tested on: K-562 leukemia
[20] = tested on: KM12 colon
[21] = tested on: LOX IMVI melanoma
[22] = tested on: M14 melanoma
[23] = tested on: MALME-3M melanoma
[24] = tested on: MCF7 breast
[25] = tested on: MDA-MB-231 breast
[26] = tested on: MDA-MB-435
[27] = tested on: MDA-N
[28] = tested on: MOLT-4 leukemia
[29] = tested on: NCI-H226 lung
[30] = tested on: NCI-H23 lung
[31] = tested on: NCI-H460 lung
[32] = tested on: NCI-H522 lung
[33] = tested on: NCI/ADR-RES ovarian
[34] = tested on: OVCAR-3 ovarian
[35] = tested on: OVCAR-4 ovarian
[36] = tested on: OVCAR-5 ovarian
[37] = tested on: OVCAR-8 ovarian
[38] = tested on: PC-3 prostate
[39] = tested on: RPMI-8226 leukemia
[40] = tested on: RXF 393 renal
[41] = tested on: SF-268 CNS
[42] = tested on: SF-295 CNS
[43] = tested on: SF-539 CNS
[44] = tested on: SK-MEL-2 melanoma
[45] = tested on: SK-MEL-28 melanoma
[46] = tested on: SK-MEL-5 melanoma
[47] = tested on: SK-OV-3 ovarian
[48] = tested on: SN12C renal
[49] = tested on: SNB-19 CNS
[50] = tested on: SNB-75 CNS
[51] = tested on: SR leukemia
[52] = tested on: SW-620 colon
[53] = tested on: T-47D breast
[54] = tested on: TK-10 renal
[55] = tested on: U251 CNS
[56] = tested on: UACC-257 melanoma
[57] = tested on: UACC-62 melanoma
[58] = tested on: UO-31 renal
[59] = tested on: BT-549 breast

## COC(=O)C1=C(C)NC(C)=C(C(=O)OCCCN2CCC(c3ccccc3)(c3ccccc3)CC2)C1c1cccc([N+](=O)[O-])c1 (stereo not given)
[1]
  TGI: 2.99 µM
[2]
  TGI: 8.69 µM
[3]
  TGI: 3.41 µM
[4]
  TGI: 3.05 µM
[5]
  TGI: 11.8 µM
[6]
  TGI: > 100 µM
[7]
  TGI: 3.08 µM
[8]
  TGI: 3.31 µM
[9]
  TGI: 6.42 µM
[10]
  TGI: 4.58 µM
[11]
  TGI: 2.86 µM
[12]
  TGI: 3.19 µM
[13]
  TGI: 75 µM
[14]
  TGI: 9.16 µM
[15]
  TGI: 4.26 µM
[16]
  TGI: 4.57 µM
[17]
  TGI: 2.71 µM
[18]
  TGI: 3.21 µM
[19]
  TGI: > 100 µM
[20]
  TGI: 3.21 µM
[21]
  TGI: 3.2 µM
[22]
  TGI: 3.13 µM
[23]
  TGI: 3.66 µM
[24]
  TGI: 3.74 µM
[25]
  TGI: 2.65 µM
[26]
  TGI: 3.02 µM
[27]
  TGI: 3.89 µM
[28]
  TGI: 10 µM
[29]
  TGI: 18.2 µM
[30]
  TGI: 3.32 µM
[31]
  TGI: 3.35 µM
[32]
  TGI: 4.72 µM
[33]
  TGI: 3.42 µM
[34]
  TGI: 2.8 µM
[35]
  TGI: 2.98 µM
[36]
  TGI: 7.3 µM
[37]
  TGI: 3.39 µM
[38]
  TGI: 3.05 µM
[39]
  TGI: 5.82 µM
[40]
  TGI: 3.43 µM
[41]
  TGI: 3.47 µM
[42]
  TGI: 3.18 µM
[43]
  TGI: 3.27 µM
[44]
  TGI: 4.74 µM
[45]
  TGI: 3.39 µM
[46]
  TGI: 3.16 µM
[47]
  TGI: 12.9 µM
[48]
  TGI: 2.99 µM
[49]
  TGI: 3.24 µM
[50]
  TGI: 9.84 µM
[51]
  TGI: 4.5 µM
[52]
  TGI: 3.75 µM
[53]
  TGI: 30.2 µM
[54]
  TGI: 7.34 µM
[55]
  TGI: 3.21 µM
[56]
  TGI: 3.1 µM
[57]
  TGI: 3.24 µM
[58]
  TGI: 3.89 µM

## Cc1ccc2c(c1)C(=O)C1(Cc3ccccc3C1=O)C2 (stereo not given)
[1]
  TGI: > 100 µM
[2]
  TGI: > 100 µM
[3]
  TGI: > 100 µM
[4]
  TGI: > 100 µM
[6]
  TGI: > 100 µM
[7]
  TGI: > 100 µM
[8]
  TGI: > 100 µM
[9]
  TGI: > 100 µM
[10]
  TGI: > 100 µM
[11]
  TGI: > 100 µM
[12]
  TGI: > 100 µM
[13]
  TGI: > 100 µM
[14]
  TGI: > 100 µM
[15]
  TGI: > 100 µM
[16]
  TGI: > 100 µM
[17]
  TGI: > 100 µM
[18]
  TGI: > 100 µM
[19]
  TGI: > 100 µM
[20]
  TGI: > 100 µM
[21]
  TGI: > 100 µM
[22]
  TGI: > 100 µM
[23]
  TGI: > 100 µM
[24]
  TGI: > 100 µM
[25]
  TGI: > 100 µM
[26]
  TGI: > 100 µM
[27]
  TGI: > 100 µM
[28]
  TGI: > 100 µM
[29]
  TGI: > 100 µM
[30]
  TGI: > 100 µM
[31]
  TGI: > 100 µM
[32]
  TGI: > 100 µM
[33]
  TGI: > 100 µM
[34]
  TGI: > 100 µM
[35]
  TGI: > 100 µM
[36]
  TGI: > 100 µM
[37]
  TGI: > 100 µM
[38]
  TGI: > 100 µM
[39]
  TGI: > 100 µM
[40]
  TGI: > 100 µM
[41]
  TGI: > 100 µM
[42]
  TGI: > 100 µM
[43]
  TGI: > 100 µM
[45]
  TGI: > 100 µM
[46]
  TGI: > 100 µM
[47]
  TGI: > 100 µM
[48]
  TGI: > 100 µM
[49]
  TGI: > 100 µM
[50]
  TGI: > 100 µM
[51]
  TGI: > 100 µM
[52]
  TGI: > 100 µM
[53]
  TGI: > 100 µM
[54]
  TGI: > 100 µM
[55]
  TGI: > 100 µM
[56]
  TGI: > 100 µM
[57]
  TGI: > 100 µM
[58]
  TGI: 39 µM

## CS(=O)(=O)OCC(CCl)(CCl)CCl
[2]
  TGI: > 100 µM
[3]
  TGI: > 100 µM
[4]
  TGI: > 100 µM
[6]
  TGI: > 100 µM
[7]
  TGI: > 100 µM
[8]
  TGI: > 100 µM
[10]
  TGI: > 100 µM
[11]
  TGI: > 100 µM
[12]
  TGI: > 100 µM
[15]
  TGI: > 100 µM
[16]
  TGI: > 100 µM
[17]
  TGI: > 100 µM
[19]
  TGI: > 100 µM
[20]
  TGI: > 100 µM
[21]
  TGI: > 100 µM
[22]
  TGI: > 100 µM
[24]
  TGI: > 100 µM
[25]
  TGI: > 100 µM
[26]
  TGI: > 100 µM
[27]
  TGI: > 100 µM
[28]
  TGI: > 100 µM
[29]
  TGI: > 100 µM
[30]
  TGI: > 100 µM
[31]
  TGI: > 100 µM
[32]
  TGI: > 100 µM
[33]
  TGI: > 100 µM
[34]
  TGI: > 100 µM
[35]
  TGI: > 100 µM
[37]
  TGI: > 100 µM
[38]
  TGI: > 100 µM
[40]
  TGI: > 100 µM
[41]
  TGI: > 100 µM
[42]
  TGI: > 100 µM
[45]
  TGI: > 100 µM
[46]
  TGI: > 100 µM
[47]
  TGI: > 100 µM
[48]
  TGI: > 100 µM
[49]
  TGI: > 100 µM
[50]
  TGI: > 100 µM
[51]
  TGI: > 100 µM
[52]
  TGI: > 100 µM
[53]
  TGI: > 100 µM
[54]
  TGI: > 100 µM
[55]
  TGI: > 100 µM
[56]
  TGI: > 100 µM
[58]
  TGI: > 100 µM

## COP(=O)(/C=C/c1cc(C(=O)OCc2ccccc2)n(S(=O)(=O)c2ccccc2)c1)OC
[1]
  TGI: > 100 µM
[2]
  TGI: > 100 µM
[3]
  TGI: > 100 µM
[4]
  TGI: > 100 µM
[59]
  TGI: > 100 µM
[5]
  TGI: > 100 µM
[6]
  TGI: > 100 µM
[7]
  TGI: > 100 µM
[8]
  TGI: > 100 µM
[9]
  TGI: > 100 µM
[10]
  TGI: > 100 µM
[11]
  TGI: > 100 µM
[12]
  TGI: > 100 µM
[13]
  TGI: > 100 µM
[14]
  TGI: > 100 µM
[16]
  TGI: > 100 µM
[17]
  TGI: > 100 µM
[18]
  TGI: > 100 µM
[19]
  TGI: > 100 µM
[20]
  TGI: > 100 µM
[21]
  TGI: > 100 µM
[22]
  TGI: > 100 µM
[23]
  TGI: > 100 µM
[24]
  TGI: > 100 µM
[25]
  TGI: > 100 µM
[26]
  TGI: > 100 µM
[27]
  TGI: > 100 µM
[28]
  TGI: > 100 µM
[30]
  TGI: > 100 µM
[31]
  TGI: > 100 µM
[32]
  TGI: > 100 µM
[33]
  TGI: > 100 µM
[34]
  TGI: > 100 µM
[35]
  TGI: > 100 µM
[36]
  TGI: > 100 µM
[37]
  TGI: > 100 µM
[38]
  TGI: > 100 µM
[40]
  TGI: > 100 µM
[41]
  TGI: > 100 µM
[42]
  TGI: > 100 µM
[43]
  TGI: > 100 µM
[44]
  TGI: > 100 µM
[45]
  TGI: > 100 µM
[46]
  TGI: > 100 µM
[47]
  TGI: > 100 µM
[48]
  TGI: > 100 µM
[49]
  TGI: > 100 µM
[50]
  TGI: > 100 µM
[52]
  TGI: > 100 µM
[53]
  TGI: > 100 µM
[54]
  TGI: > 100 µM
[55]
  TGI: > 100 µM
[56]
  TGI: > 100 µM
[57]
  TGI: > 100 µM
[58]
  TGI: > 100 µM
